Experimental data as given in patent US12162893B2 (Erasca, Inc., priority 2020, dated 2024).

Biological target: T1, mutant G12C K-RAS (Homo sapiens, UniProt P01116, G12C)
T1 construct: made in house; host or cells: E. coli BL21
Assay: covalent adduct formation (CAF) with mutant G12C K-RAS
Format: binding
Design: CAF: unit not given here
Conditions: for % CAF @ 10 μM,1 h: Table 6; for CAF: Table 3, Pyridone Core-Morpholine Unsubstituted
Protocol: Embodiments disclosed herein are further illustrated by the following examples in Tables 1-4 and the Examples hereinbelow. The Tables indicate the compound number, structure, the observed mass spectral molecular weight peak, and covalent adduct formation (CAF) with a mutant G12C K-RAS after 60 minutes at a concentration of 10 micromolar.

[1] = after 60 minutes at 10 micromolar

Compound	% CAF @ 10 μM,1 h [%]	further results
C=CC(=O)N1C[C@H](C)N(c2nc(=O)n3c4c(c(-c5cccc6ccccc56)c(Cl)cc24)OC[C@H]3Cn2cccn2)C[C@H]1C (atropisomer, axis not shown) [Example 306, (3R,10R)-3-((1H-pyrazol-1-yl)methyl)-7-((2S,5R)-4-acryloyl-2,5-dimethylpiperazin-1-yl)-9-chloro-10-(naphthalen-1-yl)-2,3-dihydro-5H-[1,4]oxazino[2,3,4-ij]quinazolin-5-one]	73.5	–
C=CC(=O)N1C[C@H](C)N(c2nc(=O)n3c4c(c(-c5c(O)cccc5F)c(Cl)cc24)OC[C@@H]3Cn2cccn2)C[C@H]1C (atropisomer, axis not shown) [Example 243, (3S,10S)-3-((1H-pyrazol-1-yl)methyl)-7-((2S,5R)-4-acryloyl-2,5-dimethylpiperazin-1-yl)-9-chloro-10-(2-fluoro-6-hydroxyphenyl)-2H-[1,4]oxazino[2,3,4-ij]quinazolin-5(3H)-one]	80.6	–
C=CC(=O)N1C[C@H](C)N(c2nc(=O)n3c4c(c(-c5c(O)cccc5F)c(Cl)cc24)OC[C@@H]3CN(C)CC(F)(F)F)C[C@H]1C (atropisomer, axis not shown) [Example 239, (3S,10R)-7-((2S,5R)-4-acryloyl-2,5-dimethylpiperazin-1-yl)-9-chloro-10-(2-fluoro-6-hydroxyphenyl)-3-((methyl(2,2,2-trifluoroethyl)amino)methyl)-2H-[1,4]oxazino[2,3,4-ij]quinazolin-5(3H)-one]	3	–
C=CC(=O)N1C[C@H](C)N(c2nc(=O)n3c4c(c(-c5ccc(F)cc5F)c(Cl)cc24)OC[C@@H]3CCN2CCOCC2)C[C@H]1C [Example 217, (3S)-7-((2S,5R)-4-acryloyl-2,5-dimethylpiperazin-1-yl)-9-chloro-10-(2,4-difluorophenyl)-3-(2-morpholinoethyl)-2,3-dihydro-5H-[1,4]oxazino[2,3,4-ij]quinazolin-5-one]	83.4	–
C=CC(=O)N1C[C@H](C)N(c2nc(=O)n3c4c(c(-c5ccc(F)cc5F)c(C#N)cc24)OC[C@H]3CCCN2C[C@@H]3C[C@H]2CO3)C[C@H]1C [Example 332, (3R)-3-(3-((1S,4S)-2-oxa-5-azabicyclo[2.2.1]heptan-5-yl)propyl)-7-((2S,5R)-4-acryloyl-2,5-dimethylpiperazin-1-yl)-10-(2,4-difluorophenyl)-5-oxo-2,3-dihydro-5H-[1,4]oxazino[2,3,4-ij]quinazoline-9-carbonitrile]	56.9	–
C=CC(=O)N1C[C@H](C)N(c2nc(=O)n3c4c(c(-c5c(O)cccc5F)c(Cl)cc24)OC[C@H]3CN2CCN(C)CC2)C[C@H]1C (atropisomer, axis not shown) [Example 300, (3R,10R)-7-((2S,5R)-4-acryloyl-2,5-dimethylpiperazin-1-yl)-9-chloro-10-(2-fluoro-6-hydroxyphenyl)-3-((4-methylpiperazin-1-yl)methyl)-2,3-dihydro-5H-[1,4]oxazino[2,3,4-ij]quinazolin-5-one]	0	–
C=CC(=O)N1C[C@H](C)N(c2nc(=O)n3c4c(c(-c5c(O)cccc5F)c(Cl)cc24)OC[C@@H]3CN2CCOCC2)C[C@H]1C (atropisomer, axis not shown) [Example 208, (3R,10R)-7-((2S,5R)-4-acryloyl-2,5-dimethylpiperazin-1-yl)-9-chloro-10-(2-fluoro-6-hydroxyphenyl)-3 - (morpholinomethyl)-2,3-dihydro-5H-[1,4]oxazino[2,3,4-ij]quinazolin-5-one]	0	–
C=CC(=O)N1C[C@H](C)N(c2nc(=O)n3c4c(c(-c5ccc(F)cc5F)c(Cl)cc24)OC[C@@H]3CN2CCN(C)CC2)C[C@H]1C [Example 257, (3S)-7-((2S,5R)-4-acryloyl-2,5-dimethylpiperazin-1-yl)-9-chloro-10-(2,4-difluorophenyl)-3-((4-methylpiperazin-1-yl)methyl)-2H-[1,4]oxazino[2,3,4-ij]quinazolin-5(3H)-one]	94.8	–
C=CC(=O)N1C[C@H](C)N(c2nc(=O)n3c4c(c(-c5ccc(F)cc5F)c(Cl)cc24)OC[C@H]3CCCN(C)C2COC2)C[C@H]1C [Example 327, (3R)-7-((2S,5R)-4-acryloyl-2,5-dimethylpiperazin-1-yl)-9-chloro-10-(2,4-difluorophenyl)-3-(3-(methyl(oxetan-3-yl)amino)propyl)-2,3-dihydro-5H-[1,4]oxazino[2,3,4-ij]quinazolin-5-one]	84.5	–
C=CC(=O)N1C[C@H](C)N(c2nc(=O)n3c4c(c(-c5ccc(F)cc5F)c(Cl)cc24)OC[C@@H]3Cn2ccnc2)C[C@H]1C [Example 238, (3S)-3-((1H-imidazol-1-yl)methyl)-7-((2S,5R)-4-acryloyl-2,5-dimethylpiperazin-1-yl)-9-chloro-10-(2,4-difluorophenyl)-2H-[1,4]oxazino[2,3,4-ij]quinazolin-5(3H)-one]	79.4	–
C=CC(=O)N1C[C@H](C)N(c2nc(=O)n3c4c(c(-c5ccc(F)cc5F)c(Cl)cc24)OC[C@H]3CN2C[C@H]3CC[C@@H](C2)N3C2COC2)C[C@H]1C [Example 291, (3R)-7-((2S,5R)-4-acryloyl-2,5-dimethylpiperazin-1-yl)-9-chloro-10-(2,4-difluorophenyl)-3-(((1R,5S)-8-(oxetan-3-yl)-3,8-diazabicyclo[3.2.1]octan-3-yl)methyl)-2H-[1,4]oxazino[2,3,4-ij]quinazolin-5(3H)-one]	88.8	–
C=CC(=O)N1C[C@H](C)N(c2nc(=O)n3c4c(c(-c5ccc(F)cc5F)c(Cl)cc24)OC[C@@H]3COC[C@@H]2CCCN2C)C[C@H]1C [Example 296, (3S)-7-((2S,5R)-4-acryloyl-2,5-dimethylpiperazin-1-yl)-9-chloro-10-(2,4-difluorophenyl)-3-((((S)-1-methylpyrrolidin-2-yl)methoxy)methyl)-2,3-dihydro-5H-[1,4]oxazino[2,3,4-ij]quinazolin-5-one]	79.8	–
C=CC(=O)N1CCN(c2nc(=O)n3c4c(c(N(C)c5ccccc5C)c(Cl)cc24)OCC3)CC1 [Example 6]	–	% CAF (60 min) (Table 1, Pyrimidone Core-Morpholine Unsubstituted, after 60 minutes at 10 micromolar): 17.6%
C=CC(=O)N1C[C@H](C)N(c2nc(=O)n3c4c(c(-c5ccc(F)cc5F)c(Cl)cc24)OC[C@@H]3COC2CCN(C)CC2)C[C@H]1C [Example 276, (3S)-7-((2S,5R)-4-acryloyl-2,5-dimethylpiperazin-1-yl)-9-chloro-10-(2,4-difluorophenyl)-3-(((1-methylpiperidin-4-yl)oxy)methyl)-2H-[1,4]oxazino[2,3,4-ij]quinazolin-5(3H)-one]	73.5	–
C=CC(=O)N1C[C@H](C)N(c2nc(=O)n3c4c(c(-c5c(F)cccc5C(F)F)ccc24)OCC3)C[C@H]1C [Example 200, 7-((2S,5R)-4-acryloyl-2,5-dimethylpiperazin-l-yl)-10-(2-(difluoromethyl)-6-fluorophenyl)-2,3-dihydro-5H-1,4|oxazino[2,3,4-ij]quinazolin-5-one]	0	–
C=CC(=O)N1C[C@H](C)N(c2nc(=O)n3c4c(c(-c5ccc(F)cc5F)c(Cl)cc24)O[C@H](CCCN2C4CCC2COC4)C3)C[C@H]1C [Example 261, (2R)-2-(3-(3-oxa-8-azabicyclo[3.2.1]octan-8-yl)propyl)-7-((2S,5R)-4-acryloyl-2,5-dimethylpiperazin-1-yl)-9-chloro-10-(2,4-difluorophenyl)-2,3-dihydro-5H-[1,4]oxazino[2,3,4-ij]quinazolin-5-one]	21.1	–
C=CC(=O)N1C[C@H](C)N(c2nc(=O)n3c4c(c(-c5cc(Cl)ccc5F)c(Cl)cc24)OC[C@H]3CN2CCOCC2)C[C@H]1C [Example 212, (3R)-7-((2S,5R)-4-acryloyl-2,5-dimethylpiperazin-1-yl)-9-chloro-10-(5-chloro-2-fluorophenyl)-3-(morpholinomethyl)-2H-[1,4]oxazino[2,3,4-ij]quinazolin-5(3H)-one]	59.8	–
C=CC(=O)N1C[C@H](C)N(c2nc(=O)n3c4c(c(-c5cc(Cl)ccc5F)c(Cl)cc24)OC[C@@H]3CN2CCC(F)(F)C2)C[C@H]1C [Example 214, (3S)-7-((2S,5R)-4-acryloyl 2,5-dimethylpiperazin-1-yl)-9-chloro-10-(5-chloro-2-fluorophenyl)-3-((3,3-difluoropyrrolidin-1-yl)methyl)-2,3-dihydro-5H [1,4]oxazino[2,3,4-ij]quinazolin-5-one]	60.9	–
C=CC(=O)N1C[C@H](C)N(c2c(C#N)c(=O)n3c4c(c(-c5c(O)cccc5F)c(Cl)cc24)OCC3)C[C@H]1C [Example 42, (S)-7-((2S,5R)-4-acryloyl-2,5-dimethylpiperazin-1-yl)-9-chloro-10-(2-fluoro-6-hydroxyphenyl)-5-oxo-3,5-dihydro-2H-[1,4]oxazino[2,3,4-ij]quinoline-6-carbonitrile]	–	CAF [1]: 0
C=CC(=O)N1CCN(c2cc(=O)n3c4c(c(-c5c(C)ccc6[nH]nc(C)c56)ccc24)CCC3)CC1 [Example 48, 1-(4-acryloylpiperazin-1-yl)-8-(3,5-dimethyl-1H-indazol-4-yl)-6,7-dihydropyrido[3,2,1-ij]quinolin-3(5H)-one]	–	CAF [1]: 1
C=CC(=O)N1C[C@H](C)N(c2nc(=O)n3c4c(c(-c5c(O)cccc5F)c(Cl)cc24)OC[C@H]3CN2CCOCC2)C[C@H]1C (atropisomer, axis not shown) [Example 210, (3R,10R)-7-((2S,5R)-4-acryloyl-2,5-dimethylpiperazin-1-yl)-9-chloro-10-(2-fluoro-6-hydroxyphenyl)-3-(morpholinomethyl)-2,3-dihydro-5H-[1,4]oxazino[2,3,4-ij]quinazolin-5-one]	0	–
C=CC(=O)N1C[C@H](C)N(c2nc(=O)n3c4c(c(-c5c(O)cccc5F)c(Cl)cc24)OC[C@@H]3CN2CCN(C)CC2)C[C@H]1C (atropisomer, axis not shown) [Example 314, (3S,10S)-7-((2S,5R)-4-acryloyl-2,5-dimethylpiperazin-1-yl)-9-chloro-10-(2-fluoro-6-hydroxyphenyl)-3-((4-methylpiperazin-1-yl)methyl)-2,3-dihydro-5H-[1,4]oxazino[2,3,4-ij]quinazolin-5-one]	74.8	–
